Measurements as given in patent US20230165836A1, “ALPHA-2 ADRENERGIC RECEPTOR AGONISTS FOR THE TREATMENT OF CANCER” (UNIVERSITÉ CATHOLIQUE DE LOUVAIN, priority 2020, published 2023).

What was measured:
[1] = tested on: B16F1 melanoma; assay: B16F1 melanoma in immune deficient mice; assay type: in vivo; conditions: B16F1 in immune deficient NSG mice; 5 mg/kg, i.p.
Description: FIGS. 10A-B is a set of curves showing the tumor growth of B16F1 melanoma in C57BL/6J (FIG. 10A) or immunodeficient NSG mice (FIG. 10B) treated with PBS (Control, curve 1) or clonidine (5 mg/kg, i.p., curve 2).
FIGS. 11A-B is a set of curves showing the tumor growth of B16F1 melanoma in C57BL/6J (FIG. 11A) or NSG mice (FIG. 11B) treated with PBS (Control, curve 1) or guanfacine (5 mg/kg, i.p., curve 2).

[2] = tested on: TiRP melanoma; assay: TiRP melanoma model, monotherapy; assay type: in vivo; conditions: TiRP+/+ mice; 5 mg/kg, i.p. daily from tumor size around 250 mm^3
Description: FIGS. 14A-B is a set of curves showing the tumor growth (melanoma) in TiRP+/+ mice that have received daily injections of guanfacine (5 mg/kg, i.p. triangles; FIG. 14A), clonidine (5 mg/kg, i.p., circles; FIG. 14B), or control (PBS, i.p., squares), when the tumor size was around 250 mm^3 until sacrifice.
TiRP mice have been created by crossing Ink4a/Are^flox/flox mice with mice carrying a transgenic construct controlled by the tyrosinase promoter and driving the expression of H-Ras ^12V and Trapl a which encodes a MAGE-type tumor antigen P1A; the promoter is separated from the coding region by a stop cassette made of a floxed self-deleting CreER (Huijbers et al., 2006, Cancer Res 66, 3278-3286). Those mice were backcrossed to a B10.D2 background and bred to homozygosity. TCRP1A mice heterozygous for the H-2Ld/P1A35-43-specific TCR transgene were kept on the B10.D2;Rag1^−/− background (Shanker et al., 2004, J Immunol 172, 5069-5077). […]
A fresh solution of 40H-Tamoxifen was prepared by dissolving 40H-Tamoxifen (Imaginechem®) in 100% ethanol and mineral oil (ratio 1:9) followed by 30 min sonication, and injected subcutaneously (2 mg/200 uL per mouse) in the neck area of gender-matched 7 weeks old TiRP mice. Tumor appearance was monitored daily and tumors were measured three times/week. Tumor volume (in mm^3) was calculated by the following formula: Volume=width^2×length/2.

[3] = tested on: human LS411N ovarian cancer; assay: LS411N xenograft with adoptive transfer of allogeneic human PBMC; assay type: in vivo; conditions: human allogenic PBMC transferred at tumor size 100 mm^3
Description: Adoptive transfer of human PBMC was performed when tumor size reaches 100 mm^3.

[4] = tested on: mammary gland tumor; assay: Tumor model: mammary gland tumor; assay type: in vivo, mice; conditions: mammary gland tumor (FIG. 22A, 23A)
Text: (§1) FIGS. 23A-H is a set of curves showing the tumor growth of mice treated with PBS (Control, circles) or guanabenz (GBZ, triangles) in different tumor models: such as mammary gland tumor (FIG. 23A), hepatocellular carcinoma (FIG. 23B), T cell lymphoma (FIG. 23C), lung cancer (FIG. 23D), myeloma (FIG. 23E), mammary adenocarcinoma (FIG. 23F), renal cancer (FIG. 23G) and fibrosarcoma (FIG. 23H).

[5] = tested on: myeloma; assay: Tumor model: myeloma; assay type: in vivo, mice; conditions: myeloma (FIG. 22E, 23E)
Text: as §1

[6] = tested on: mammary adenocarcinoma; assay: Tumor model: mammary adenocarcinoma; assay type: in vivo, mice; conditions: mammary adenocarcinoma (FIG. 22F, 23F)
Text: as §1

[7] = tested on: renal cancer; assay: Tumor model: renal cancer; assay type: in vivo, mice; conditions: renal cancer (FIG. 22G, 23G)
Text: as §1

Compound: Clc1cccc(Cl)c1N=C1NCCN1 [clonidine]
- tumor growth [1]: No tumor inhibition was found
- tumor volume, monotherapy [2]: efficient in decreasing the tumor volume
- tumor growth [3]: significant tumor inhibition
- tumor growth [4]: strong tumor inhibition
- tumor growth [5]: strong tumor inhibition
- tumor growth [6]: strong tumor inhibition
- tumor growth [7]: strong tumor inhibition
